From ChEMBL document CHEMBL3588816, “Molecular modeling of the human P2Y14 receptor: A template for structure-based design of selective agonist ligands” (Bioorg Med Chem, 2015)
Active and inactive are the calls of the source. The rule behind the calls is not given here.

Legend:
[1] = molecular target: T1, P2Y purinoceptor 14 (Homo sapiens) (UniProt Q15391); test: Agonist activity at recombinant human P2Y14 receptor expressed in African green monkey COS7 cells co-transfected with Galphaqi assessed as stimulation of phospholipase Cbeta at 10 uM; assay type: cell-based; settings: COS-7
T1 sequence (whole entry): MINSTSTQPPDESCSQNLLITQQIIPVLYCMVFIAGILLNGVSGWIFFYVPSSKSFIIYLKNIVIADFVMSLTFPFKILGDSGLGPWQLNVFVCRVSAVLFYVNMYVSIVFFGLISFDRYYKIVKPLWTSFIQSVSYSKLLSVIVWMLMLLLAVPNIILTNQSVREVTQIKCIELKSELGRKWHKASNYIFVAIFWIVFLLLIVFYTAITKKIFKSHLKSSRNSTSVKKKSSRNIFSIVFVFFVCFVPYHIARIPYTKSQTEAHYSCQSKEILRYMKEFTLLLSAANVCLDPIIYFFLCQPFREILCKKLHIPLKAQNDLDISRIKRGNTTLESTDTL

[2] = molecular target: T2, P2Y purinoceptor 14 (Homo sapiens, UniProt Q15391); test: Agonist activity at recombinant human P2Y14 receptor expressed in African green monkey COS7 cells co-transfected with Galphaqi assessed as stimulation of phospholipase Cbeta; assay type: cell-based, COS-7
T2 sequence (Q15391 whole entry): T1 sequence (whole entry)

## [N-]=[N+]=Nc1cn([C@@H]2O[C@H](COP(=O)(O)OP(=O)(O)O[C@H]3O[C@H](CO)[C@@H](O)[C@H](O)[C@H]3O)[C@@H](O)[C@H]2O)c(=O)[nH]c1=O
[1]
  Activity: inactive

## [N-]=[N+]=N[C@@H]1[C@H](O)[C@@H](COP(=O)(O)OP(=O)(O)O[C@H]2O[C@H](CO)[C@@H](O)[C@H](O)[C@H]2O)O[C@H]1n1ccc(=O)[nH]c1=O
[1]
  Activity: inactive

## N[C@@H]1[C@H](O)[C@@H](COP(=O)(O)OP(=O)(O)O[C@H]2O[C@H](CO)[C@@H](O)[C@H](O)[C@H]2O)O[C@H]1n1ccc(=O)[nH]c1=O
[1]
  Activity: inactive

## O=c1ccn([C@@H]2O[C@H](COP(=O)(O)OP(=O)(O)O[C@H]3O[C@H](CO)[C@@H](O)[C@H](O)[C@H]3O)[C@@H](O)[C@H]2O)c(=S)[nH]1
[2]
  EC50: 0.011 µM

## O=c1ccn([C@]23C[C@H]2[C@H](COP(=O)(O)OP(=O)(O)O[C@H]2O[C@H](CO)[C@@H](O)[C@H](O)[C@H]2O)[C@@H](O)[C@H]3O)c(=O)[nH]1
[1]
  Activity: inactive

## O=c1[nH]c(=O)n([C@@H]2O[C@H](COP(=O)(O)OP(=O)(O)O[C@H]3O[C@H](CO)[C@@H](O)[C@H](O)[C@H]3O)[C@@H](O)[C@H]2O)cc1I
[1]
  Activity: inactive

## Nc1cn([C@@H]2O[C@H](COP(=O)(O)OP(=O)(O)O[C@H]3O[C@H](CO)[C@@H](O)[C@H](O)[C@H]3O)[C@@H](O)[C@H]2O)c(=O)[nH]c1=O
[1]
  Activity: inactive

## O=c1ccn([C@H]2[C@H](O)[C@H](O)[C@]3(COP(=O)(O)OP(=O)(O)O[C@H]4O[C@H](CO)[C@@H](O)[C@H](O)[C@H]4O)C[C@H]23)c(=O)[nH]1
[1]
  Activity: inactive
